Reference: patent US4176009A, “Method of measuring collagenase activity” (Ajinomoto Co., Inc., priority 1976, dated 1979)
Non-standard residues stand in square brackets, D forms with d. Residues, ends and D or L forms follow the SMILES beside them. *: point of attachment. X1 = O=S(=O)(c1ccc(N=Nc2ccc(O)c3ccccc23)cc1)*; X2 = O=C(c1ccc(N=Nc2ccccc2)cc1)*

Columns and labels:
purified collagenase [1] = test: Hydrolysis of NABS-peptide by purified collagenase (Example 16); format: biochemical, tadpole; conditions: 5×10^-4 M in 20% ethanol-Tris-HCl pH 7.8, collagenase 17.4 U/ml, 60 minutes at 37° C.
Experimental: (§1) Purified collagenase used in Examples was prepared from cultured media of tadpole skin explants as described in Biochem. Biophs. Acta, 263 564(1972), and non-specific peptidases were prepared by subjecting 5 ml of fresh adult human serum to chromatography on a calibrated Sephadex G-200 superfine gel column equilibrated with 0.05 M Tris-HCl buffer, pH 7.5, containing 0.15 M NaCl and 5 mM CaCl2, and gathering the effluent fractions corresponding to molecular weights of 100,000-180,000.
NABS-Pro-Gln-Gly-Ile-Ala-Gly-Gln-D-Arg-OH was dissolved in 20% ethanol-0.05 M Tris-HCl buffer, pH 7.8, containing 0.15 M NaCl and 5 mM CaCl2 to make a concentration of 5×10^-4 M. 0.5 ml of the solution was mixed with 0.1 ml of the purified collagenase (17.4 U/ml) and incubated for 60 minutes at 37° C. After stopping the enzyme reaction by adding 0.1 ml of 5 N-hydrochloric acid, the NABS-peptide fragments released were extracted with 1 ml ethyl acetate, followed by centrifugation at 3,000-5,000 rpm and room temperature for 10 minutes. The degree of hydrolysis was determined by measuring the absorbance of the organic layer at 389 nm.

purified collagenase [2] = test: Hydrolysis of PAB-peptide by purified collagenase (Example 17); format: biochemical, tadpole; conditions: 5×10^-4 M in Tris-HCl pH 7.8, collagenase 17.4 U/ml, 60 minutes at 37° C.
Experimental: as §1
PAS-Pro-Gln-Gly-Ile-Ala-Gly-Gln-D-Arg-OH was dissolved in 0.05 M Tris-HCl buffer, pH 7.8, containing 0.15 M NaCl and 5 mM CaCl2 to make a concentration of 5×10^-4 M. 0.1 ml of the solution was mixed with 0.1 ml of the purified collagenase (17.4 U/ml) and incubated for 60 minutes at 37° C. After stopping the enzyme reaction by adding 0.5 ml of 1 N hydrochloric acid, the PAB-peptide fragments released were extracted with 1 ml ethyl acetate after saturated with sodium chloride, and worked up as in Example 16. The degree of hydrolysis was determined by measuring the absorbance of the organic layer at 325 nm.

| degree of hydrolysis, OD389/hr/ml (purified collagenase [1]) [OD389/hr/ml] | Compound | degree of hydrolysis, OD325/hr/ml (purified collagenase [2]) [OD325/hr/ml] |
| --- | --- | --- |
| 0.100 | CC[C@H](C)[C@H](NC(=O)CNC(=O)[C@H](CCC(N)=O)NC(=O)[C@@H]1CCCN1S(=O)(=O)c1ccc(N=Nc2ccc(O)c3ccccc23)cc1)C(=O)N[C@@H](C)C(=O)NCC(=O)N[C@@H](CCC(N)=O)C(=O)N[C@H](CCCNC(=N)N)C(=O)O [Example 2, NABS-Pro-Gln-Gly-Ile-Ala-Gly-Gln-D-Arg-OH] (X1-PQGIAGQ[dR]-OH) |  |
|  | CC[C@H](C)[C@H](NC(=O)CNC(=O)[C@H](CCC(N)=O)NC(=O)[C@@H]1CCCN1C(=O)c1ccc(N=Nc2ccccc2)cc1)C(=O)N[C@@H](C)C(=O)NCC(=O)N[C@@H](CCC(N)=O)C(=O)N[C@H](CCCNC(=N)N)C(=O)O [Example 3, PAB-Pro-Gln-Gly-Ile-Ala-Gly-Gln-D-Arg-OH] (X2-PQGIAGQ[dR]-OH) | 1.117 |
